Assay results: the NIST ThermoML archive (doi:10.1021/je401120a)

Assay: xn = mol fraction of the nth substance listed
Conditions: 101 kPa, Liquid; for electrical conductivity: Crison conductimeter (model GLP31); for speed of sound: Pulse-echo method; for mass density: Vibrating tube method

CCC[n+]1ccccc1.F[B-](F)(F)F [1-propylpyridinium tetrafluoroborate] + CO
Conditions	electrical conductivity [S/m]	mass density [kg/m3]	speed of sound [m/s]	viscosity [mPa·s]
293.15 K, x1 = 0.028	–	846.441	1164.9	–
293.15 K, x1 = 0.0313	2.58	–	–	–
293.15 K, x1 = 0.0365	2.84	–	–	–
293.15 K, x1 = 0.0422	3.07	–	–	–
293.15 K, x1 = 0.0505	–	–	–	1.267
293.15 K, x1 = 0.0577	–	893.625	1208.5	–
293.15 K, x1 = 0.0658	3.66	–	–	–
293.15 K, x1 = 0.0775	3.86	–	–	–
293.15 K, x1 = 0.0894	4.05	–	–	–
293.15 K, x1 = 0.0967	–	944.389	1257.2	–
293.15 K, x1 = 0.0993	–	–	–	2.52
293.15 K, x1 = 0.1294	4.37	–	–	–
293.15 K, x1 = 0.1409	4.4	–	–	–
293.15 K, x1 = 0.1459	–	995.788	1311.1	–
293.15 K, x1 = 0.1703	4.48	–	–	–
293.15 K, x1 = 0.191	–	–	–	5.73
293.15 K, x1 = 0.1952	–	1036.49	1362.9	–
293.15 K, x1 = 0.2002	4.41	–	–	–
293.15 K, x1 = 0.2456	4.22	–	–	–
293.15 K, x1 = 0.2819	3.93	–	–	–
293.15 K, x1 = 0.291	–	–	–	9.737
293.15 K, x1 = 0.3213	–	1110.62	1458	–
293.15 K, x1 = 0.3507	3.46	–	–	–
293.15 K, x1 = 0.3918	–	–	–	14.39
293.15 K, x1 = 0.3937	3.13	–	–	–
293.15 K, x1 = 0.4002	–	1143.05	1496.5	–
293.15 K, x1 = 0.4334	2.77	–	–	–
293.15 K, x1 = 0.464	2.55	–	–	–
293.15 K, x1 = 0.4929	–	–	–	20.26
293.15 K, x1 = 0.4965	–	1173.27	1541.5	–
293.15 K, x1 = 0.5398	1.98	–	–	–
293.15 K, x1 = 0.5988	–	1198.33	1575.7	–
293.15 K, x1 = 0.6117	–	–	–	29.28
293.15 K, x1 = 0.635	1.46	–	–	–
293.15 K, x1 = 0.6904	–	1216.19	1598.4	–
293.15 K, x1 = 0.7331	–	–	–	46.22
293.15 K, x1 = 0.7918	0.639	–	–	–
293.15 K, x1 = 0.7923	–	–	–	61.38
293.15 K, x1 = 0.8011	–	1233.62	1621.5	–
293.15 K, x1 = 0.8425	–	–	–	77.91
293.15 K, x1 = 0.8824	–	1244.23	1637.1	–
293.15 K, x1 = 0.894	0.422	–	–	–
293.15 K, x1 = 0.8956	–	–	–	99.92
293.15 K, x1 = 0.9384	0.355	–	–	–
293.15 K, x1 = 0.94	–	1250.69	1646.4	–
293.15 K, x1 = 0.9447	–	–	–	125.55
293.15 K, x1 = 1	0.302	1256.67	1653.9	160
303.15 K, x1 = 0.028	–	837.96	1134.5	–
303.15 K, x1 = 0.0313	2.99	–	–	–
303.15 K, x1 = 0.0365	3.28	–	–	–
303.15 K, x1 = 0.0422	3.59	–	–	–
303.15 K, x1 = 0.0505	–	–	–	0.9388
303.15 K, x1 = 0.0577	–	885.479	1179.8	–
303.15 K, x1 = 0.0658	4.29	–	–	–
303.15 K, x1 = 0.0775	4.56	–	–	–
303.15 K, x1 = 0.0894	4.84	–	–	–
303.15 K, x1 = 0.0967	–	936.347	1230.9	–
303.15 K, x1 = 0.0993	–	–	–	1.76
303.15 K, x1 = 0.1294	5.15	–	–	–
303.15 K, x1 = 0.1409	5.25	–	–	–
303.15 K, x1 = 0.1459	–	987.6	1286.2	–
303.15 K, x1 = 0.1703	5.38	–	–	–
303.15 K, x1 = 0.191	–	–	–	3.674
303.15 K, x1 = 0.1952	–	1028.35	1339.4	–
303.15 K, x1 = 0.2002	5.35	–	–	–
303.15 K, x1 = 0.2456	5.16	–	–	–
303.15 K, x1 = 0.2819	4.8	–	–	–
303.15 K, x1 = 0.291	–	–	–	6.277
303.15 K, x1 = 0.3213	–	1102.55	1433.2	–
303.15 K, x1 = 0.3507	4.31	–	–	–
303.15 K, x1 = 0.3918	–	–	–	8.954
303.15 K, x1 = 0.3937	3.94	–	–	–
303.15 K, x1 = 0.4002	–	1135.04	1477.2	–
303.15 K, x1 = 0.4334	3.52	–	–	–
303.15 K, x1 = 0.464	3.16	–	–	–
303.15 K, x1 = 0.4929	–	–	–	12.66
303.15 K, x1 = 0.4965	–	1165.53	1516.7	–
303.15 K, x1 = 0.5398	2.59	–	–	–
303.15 K, x1 = 0.5988	–	1190.7	1550.9	–
303.15 K, x1 = 0.6117	–	–	–	18.63
303.15 K, x1 = 0.635	2.01	–	–	–
303.15 K, x1 = 0.6904	–	1208.71	1574	–
303.15 K, x1 = 0.7331	–	–	–	29.44
303.15 K, x1 = 0.7918	1.04	–	–	–
303.15 K, x1 = 0.7923	–	–	–	38
303.15 K, x1 = 0.8011	–	1226.21	1597.3	–
303.15 K, x1 = 0.8425	–	–	–	47.82
303.15 K, x1 = 0.8824	–	1236.99	1612.7	–
303.15 K, x1 = 0.894	0.702	–	–	–
303.15 K, x1 = 0.8956	–	–	–	59.95
303.15 K, x1 = 0.9384	0.625	–	–	–
303.15 K, x1 = 0.94	–	1243.5	1622.4	–
303.15 K, x1 = 0.9447	–	–	–	73.49
303.15 K, x1 = 1	0.516	1249.54	1629.8	90.75
